Experimental data: patent publication US20050202511A1, “AMP-activated protein kinase (AMPK) inhibitor screening assay” (priority 2002, published 2005)
“And” between values parts separate entries of the source, which are not always exact repeats. Equal entries are not always repeated. Where two headings read alike, the source gives them in different places.

Experiments:
AMPK-γ2 CBS1-4 (WT) = target: T1, AMPK-γ2 CBS1-4 (WT) (Homo sapiens, UniProt Q9UGJ0); experiment: Filter binding assay, GST-CBS domain fusion; details: for Kd: two site Hill plot model, read-out: B0.5 (concentration giving half-maximal binding)
T1 construct: all four CBS domains (CBS1-4, residues 274-569); made in house; host or cells: E. coli BL21 (DE3)
T1 sequence (Q9UGJ0 274-569): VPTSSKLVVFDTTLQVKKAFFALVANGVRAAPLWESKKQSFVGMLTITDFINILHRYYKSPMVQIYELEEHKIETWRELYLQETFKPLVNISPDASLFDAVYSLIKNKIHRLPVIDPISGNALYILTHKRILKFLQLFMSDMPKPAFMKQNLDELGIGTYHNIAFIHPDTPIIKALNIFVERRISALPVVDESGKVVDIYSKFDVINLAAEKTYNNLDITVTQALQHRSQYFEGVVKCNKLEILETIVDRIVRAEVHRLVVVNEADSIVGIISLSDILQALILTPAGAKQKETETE
Text: (§1) The boundaries of the CBS domains were taken from the alignments by Bateman. Using a plasmid encoding human γ2 as the template, PCR was used to produce DNAs encoding all four CBS domains (CBS1-4, residues 274-569), the N-terminal pair (CBS1-2, residues 274-410) or the C-terminal pair (CBS3-4, residues 430-556). The PCR primers had been designed to create BamHI and XhoI sites at the ends, and these were used to insert them into a vector that created a fusion protein with glutathione-S-transferase at the N-terminal end followed by a hexaglycine spacer, with the CBS domains at the C-terminus. All three constructs were expressed in E. coli and could be purified on glutathione-Sepharose as soluble proteins of the expected sizes in good yield (CBS1-4, 61 kDa, 5 mg/L of culture; CBS1-2, 43 kDa, 2 mg/L; CBS3-4, 43 kDa, 2 mg/L).
With the H383R, T400N and R531G mutants there were large increases in B0.5 (6-, 8- and 10-fold) with no significant change in Hill coefficient.
(§2) Various concentrations of [^14C]-AMP, [γ^32P] […] Reactions were stopped by spotting 10 ìl onto a Millipore MF Filter Membrane disc and rapidly washing under high vacuum with 1 ml of ice-cold TBS. Radioactivity was determined on the filters by scintillation counting. Non-specific binding (which was trivial) was determined by performing the assay with GST as a control, and was subtracted. […] Data were fitted to the binding models given in the text, using GraphPad Prism 3. Estimates of parameters resulting from fits are quoted in the text and Table 1±standard error, and the curves shown in figures are theoretical curves obtained using those estimates.

[1] = target: T2, recombinant á1â1γ2 heterotrimer (R531G) (Homo sapiens, UniProt Q9UGJ0, R531G); experiment: AMPK heterotrimer kinase assay, activation by AMP; type: biochemical
T2 construct: expressed in transfected cells; host or cells: CCL13 cells
T2 sequence (Q9UGJ0 whole entry R531G): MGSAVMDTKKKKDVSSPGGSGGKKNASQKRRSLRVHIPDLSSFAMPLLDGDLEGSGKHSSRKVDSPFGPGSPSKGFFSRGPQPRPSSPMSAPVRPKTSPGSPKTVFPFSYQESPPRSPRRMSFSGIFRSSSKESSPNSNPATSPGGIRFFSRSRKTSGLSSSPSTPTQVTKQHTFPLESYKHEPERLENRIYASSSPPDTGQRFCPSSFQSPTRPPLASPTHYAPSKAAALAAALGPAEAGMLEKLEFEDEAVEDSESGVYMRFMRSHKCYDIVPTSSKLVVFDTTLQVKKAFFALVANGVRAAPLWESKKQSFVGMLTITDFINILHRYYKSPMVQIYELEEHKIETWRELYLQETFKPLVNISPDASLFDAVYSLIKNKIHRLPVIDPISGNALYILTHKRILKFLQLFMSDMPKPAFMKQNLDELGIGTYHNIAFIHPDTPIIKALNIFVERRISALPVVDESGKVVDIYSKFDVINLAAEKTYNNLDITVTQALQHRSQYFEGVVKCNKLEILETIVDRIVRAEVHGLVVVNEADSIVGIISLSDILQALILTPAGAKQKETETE
T2 sequence (P54645 whole entry partner): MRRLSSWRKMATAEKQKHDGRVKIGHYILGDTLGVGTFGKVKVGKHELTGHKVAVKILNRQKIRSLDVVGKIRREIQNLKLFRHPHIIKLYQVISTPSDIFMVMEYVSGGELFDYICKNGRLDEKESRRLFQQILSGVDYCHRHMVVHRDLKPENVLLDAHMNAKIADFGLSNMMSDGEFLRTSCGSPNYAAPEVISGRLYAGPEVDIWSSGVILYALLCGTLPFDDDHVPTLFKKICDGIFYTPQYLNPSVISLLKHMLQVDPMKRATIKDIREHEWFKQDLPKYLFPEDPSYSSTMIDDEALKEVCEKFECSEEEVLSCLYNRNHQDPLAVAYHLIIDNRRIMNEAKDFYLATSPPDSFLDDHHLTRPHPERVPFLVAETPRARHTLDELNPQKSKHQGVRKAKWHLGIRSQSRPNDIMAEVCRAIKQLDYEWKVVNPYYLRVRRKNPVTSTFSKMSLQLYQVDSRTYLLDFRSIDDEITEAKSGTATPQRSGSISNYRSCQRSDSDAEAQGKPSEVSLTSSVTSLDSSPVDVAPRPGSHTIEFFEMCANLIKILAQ
T2 sequence (P80386 whole entry partner): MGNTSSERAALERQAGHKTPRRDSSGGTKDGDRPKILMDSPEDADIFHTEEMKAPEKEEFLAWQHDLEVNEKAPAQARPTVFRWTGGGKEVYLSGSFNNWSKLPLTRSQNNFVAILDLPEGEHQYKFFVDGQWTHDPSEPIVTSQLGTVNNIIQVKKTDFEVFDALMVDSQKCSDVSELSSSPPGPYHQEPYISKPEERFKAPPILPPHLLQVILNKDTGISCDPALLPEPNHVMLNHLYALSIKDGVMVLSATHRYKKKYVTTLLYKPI
Text: Plasmids expressing myc-tagged á1, â1 and γ1, γ2 (with or without WPWS mutations) or γ3 were expressed in CCL13 cells and the recombinant complexes immunoprecipitated using anti-myc antibodies.
For this reason, the estimates of A0.5 for the H383R and T400N mutants are somewhat less accurate than the others, while no value could be obtained for the R531 G mutant. […] With some mutants, the maximal activation also appeared to be affected.
PCDNA plasmids (14,25,32) encoding á1, â1 and γ1, γ2 or γ3 were expressed in CCL13 cells (25), subject to “rapid lysis”, immunoprecipitated using anti-myc antibody, and assayed as described previously (33). “Slow lysis” of CCL13 cells was as described by Stein et al (34).

IMPDH2 CBS1-2 (WT) = target: T3, IMPDH2 CBS1-2 (WT) (Homo sapiens, UniProt P12268); experiment: Filter binding assay, isolated CBS domain pair; details: single-site model
T3 construct: DNAs encoding residues 112-232 or the full-length protein (1-514) were amplified; His tag (pHAT20 vector); made in house; host or cells: E. coli
T3 sequence (P12268 112-232): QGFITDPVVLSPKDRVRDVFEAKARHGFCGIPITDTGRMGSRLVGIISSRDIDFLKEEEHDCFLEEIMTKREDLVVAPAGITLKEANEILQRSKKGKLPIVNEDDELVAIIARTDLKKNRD
Text: To examine whether binding of adenine nucleotides is a general function for CBS domains, or is specific to the γ subunits of AMPK, IMP dehydrogenase (IMPDH) was also studied. Retinitis pigmentosa can be caused by an R224P mutation in the second CBS domain of the IMPDH1 isoform (27). However, the IMPDH2 isoform is 84% identical in amino acid sequence with IMPDH1, and the arginine mutated in retinitis pigmentosa is conserved. Because the IMPDH2 isoform is ubiquitously expressed and a suitable cDNA to use as a template for PCR was more readily available, DNA encoding the single pair of CBS domains from human IMPDH2 was cloned, an R224P mutation was created and expressed both the wild type and the mutant as His-tagged proteins in E. coli.
For IMPDH2, DNAs encoding residues 112-232 or the full-length protein (1-514) were amplified using human liver cDNA (Clontech) as template, and cloned into pHAT20 (Clontech) using 5′-AgeI and 3′-KpnI sites added to the primers. For the other constructs, DNAs encoding residues 582-840 of CLC2, or 416-551 of cystathionine â-synthase, were amplified using human liver cDNA as template, and cloned into pGEX-KG as above using 5′-BamHI and 3′-XhoI sites added to the primers. All mutations were created using the Stratagene QuikChange Site-directed Mutagenesis system.
The IMPDH2 constructs were His-tagged and were purified on chelating-Sepharose (Pharmacia) charged with 50 mM CoCl2 according to manufacturer's instructions.
as §2, with “Estimates of parameters resulting from fits are quoted in the text and Table 1±standard error, and the curves shown in figures are theoretical curves obtained using those estimates.” left out

AMPK-γ2 CBS1-2 (WT) = target: T4, AMPK-γ2 CBS1-2 (WT) (Homo sapiens, UniProt Q9UGJ0); experiment: Filter binding assay, GST-CBS domain fusion
T4 construct: the N-terminal pair (CBS1-2, residues 274-410); made in house; host or cells: E. coli BL21 (DE3)
T4 sequence (Q9UGJ0 274-410): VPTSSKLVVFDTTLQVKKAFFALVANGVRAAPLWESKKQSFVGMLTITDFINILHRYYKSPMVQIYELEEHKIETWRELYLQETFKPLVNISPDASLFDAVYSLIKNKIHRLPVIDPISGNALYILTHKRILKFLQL
Text: as §1
Site-directed mutagenesis was used to create the point mutation in CBS1 that causes hereditary heart disease (R302Q).
as §2

[2] = target: T5, IMPDH2 CBS domain pair (wild type) (Homo sapiens, UniProt P12268); experiment: Displacement of bound ATP; type: binding
T5 construct: For IMPDH2, DNAs encoding residues 112-232 or the full-length protein (1-514) were amplified; His tag (vector pHAT20); made in house; host or cells: E. coli
T5 sequence (P12268 112-232): as the sequence (P12268 112-232) above
Method: ATP or [^35S]SAM were incubated with GST-CBS domain fusions (1 ìM for WT, up to 20 μM for some mutants) for 10 min at 25° C. in a 20 il total volume in TBS. Reactions were stopped by spotting 10 ìl onto a Millipore MF Filter Membrane disc and rapidly washing under high vacuum with 1 ml of ice-cold TBS. Radioactivity was determined on the filters by scintillation counting. Non-specific binding (which was trivial) was determined by performing the assay with GST as a control, and was subtracted. […] Data were fitted to the binding models given in the text, using GraphPad Prism 3.

AMPK-γ2 CBS1-2 (H383R) = target: T6, AMPK-γ2 CBS1-2 (H383R) (Homo sapiens, UniProt Q9UGJ0, H383R); experiment: Filter binding assay, GST-CBS domain fusion; details: for Kd: single-site model
T6 construct: the N-terminal pair (CBS1-2, residues 274-410); made in house; host or cells: E. coli BL21 (DE3)
T6 sequence (Q9UGJ0 274-410 H383R): as the sequence (Q9UGJ0 274-410) above, with H110R counted along it
Method: (§3) The present inventors also used site-directed mutagenesis to create four of the mutations in CBS1-2 that cause WPWS, i.e. R302Q, H383R and T400N, and Lins (which inserts a leucine residue in the linker between CBS1 and CBS2).
as §2

AMPK-γ2 CBS1-2 (Lins) = target: T7, AMPK-γ2 CBS1-2 (Lins) (Homo sapiens, UniProt Q9UGJ0, INS350L); experiment: Filter binding assay, GST-CBS domain fusion; details: single-site model
T7 construct: fused on or other part: GST at the N-terminus followed by a hexaglycine spacer (pGEX-KG)
T7 sequence (Q9UGJ0 with tags, fused parts or gaps INS350L): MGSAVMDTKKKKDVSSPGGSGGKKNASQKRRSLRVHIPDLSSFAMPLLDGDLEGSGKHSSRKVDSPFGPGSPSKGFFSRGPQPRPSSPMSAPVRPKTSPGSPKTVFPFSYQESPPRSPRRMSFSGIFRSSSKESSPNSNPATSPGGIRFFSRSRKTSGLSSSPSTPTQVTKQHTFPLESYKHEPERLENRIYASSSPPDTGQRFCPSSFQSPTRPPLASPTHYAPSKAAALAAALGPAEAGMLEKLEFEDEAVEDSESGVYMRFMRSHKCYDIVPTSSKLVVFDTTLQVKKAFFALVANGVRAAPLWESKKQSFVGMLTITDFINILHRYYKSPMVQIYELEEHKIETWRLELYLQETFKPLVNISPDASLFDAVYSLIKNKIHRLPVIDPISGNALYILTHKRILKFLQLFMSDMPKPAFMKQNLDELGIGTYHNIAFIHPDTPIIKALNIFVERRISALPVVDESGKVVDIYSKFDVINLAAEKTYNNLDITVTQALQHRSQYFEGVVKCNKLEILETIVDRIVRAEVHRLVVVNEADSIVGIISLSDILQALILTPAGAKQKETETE
Method: as §3, §2

AMPK-γ2 CBS1-2 (T400N) = target: T8, AMPK-γ2 CBS1-2 (T400N) (Homo sapiens, UniProt Q9UGJ0, T400N); experiment: Filter binding assay, GST-CBS domain fusion; details: for Kd: single-site model
T8 construct: the N-terminal pair (CBS1-2, residues 274-410); made in house; host or cells: E. coli BL21 (DE3)
T8 sequence (Q9UGJ0 274-410 T400N): as the sequence (Q9UGJ0 274-410) above, with T127N counted along it
Method: as §3, §2

AMPK-γ2 CBS3-4 (WT) = target: T9, AMPK-γ2 CBS3-4 (WT) (Homo sapiens, UniProt Q9UGJ0); experiment: Filter binding assay, GST-CBS domain fusion; details: single-site model
T9 construct: the C-terminal pair (CBS3-4, residues 430-556); made in house; host or cells: E. coli BL21 (DE3)
T9 sequence (Q9UGJ0 430-556): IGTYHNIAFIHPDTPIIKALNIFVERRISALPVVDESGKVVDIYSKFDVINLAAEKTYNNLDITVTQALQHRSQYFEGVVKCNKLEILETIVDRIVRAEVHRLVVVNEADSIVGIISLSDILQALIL
Text: as §1
Site-directed mutagenesis was also used to create a point mutation in CBS4 that causes hereditary heart disease (WPWS) (R531G).
Various concentrations of [^14C]-AMP, [γ^32P] […] Reactions were stopped by spotting 10 ìl onto a Millipore MF Filter Membrane disc and rapidly washing under high vacuum with 1 ml of ice-cold TBS. Radioactivity was determined on the filters by scintillation counting. Non-specific binding (which was trivial) was determined by performing the assay with GST as a control, and was subtracted. […]

Row | h (Hill coefficient) (AMPK-γ2 CBS1-4 (WT)) | Kd (AMPK-γ2 CBS1-4 (WT)) [µM] | effect of adding AMP on activity [1] | EC50 ([1]; read-out: A0.5) [µM] | Kd (IMPDH2 CBS1-2 (WT)) [µM] | Kd (AMPK-γ2 CBS1-2 (WT)) [µM] | Kd [2] [µM] | increase in Kd relative to wild type (AMPK-γ2 CBS1-2 (H383R)) [fold] | Kd (AMPK-γ2 CBS1-2 (H383R)) [µM] | Kd (AMPK-γ2 CBS1-2 (Lins)) [µM] | increase in Kd relative to wild type (AMPK-γ2 CBS1-2 (T400N)) [fold] | Kd (AMPK-γ2 CBS1-2 (T400N)) [µM] | Kd (AMPK-γ2 CBS3-4 (WT)) [µM] | Kd (AMPK-γ2 CBS1-2 (WT); single-site model, 5 mM MgCl2 included for ATP) [µM] | Compound | maximal binding (Bmax) (AMPK-γ2 CBS1-2 (WT); [14C]AMP)
1 | 2.2 ± 0.1 | 61 | inhibited | > 100 | 437 ± 53 | 53 ± 5 | 440 | 28 | 1500 ± 210 | 63 ± 7 | 10 | 556 ± 56 | 104 ± 10 | – | Nc1ncnc2c1ncn2[C@@H]1O[C@H](COP(=O)(O)O)[C@@H](O)[C@H]1O [AMP, adenosine monophosphate] | 0.95±0.05 moles of AMP per mole of protein
2 | 2.2 and 2.2 ± 0.2 | 257 ± 14 | – | – | 54 | – | – | – | 1570 ± 140 | 202 ± 22 | – | 952 ± 55 | 403 ± 16 | 175 ± 17 | Nc1ncnc2c1ncn2[C@@H]1O[C@H](COP(=O)(O)OP(=O)(O)OP(=O)(O)O)[C@@H](O)[C@H]1O [ATP] | –
